Measurements from patent publication US10282841B1, “Bioinformatic analysis of vascular patterning” (The United States of America as Represented by the …, priority 2011, dated 2019).
Where two headings read alike, the source gives them in different places.

What was measured:
[1] = tested on: avian chorioallantoic membrane; type: in vivo
Description: To develop the VESGEN system mapping capabilities, proangiogenesis and antiangiogenesis factors were first studied in the avian chorioallantoic membrane, a well-established, experimentally convenient 2D, optically accessible model of microvascular remodeling, angiogenesis and angiogenesis therapeutics.

[2] = tested on: blood vessels; assay: VESGEN analysis of regulators of blood vessel growth by vessel branching generation; type: in vivo; details: for vessel number, density or diameter for larger pre-existing vessels: larger pre-existing vessels of G1-G4
Description: The stimulator bFGF and inhibitor TGF-beta1 may be regarded as robust but simple regulators of blood vessel growth, because of their selective regulation of the growth of new small vessels. Other important regulators like vascular endothelial growth factor-165 (VEGF-165), also known as vascular permeability factor (VPF), are more complex in their regulatory activities. […] All healthy and unhealthy (abnormal) fluid shifts in the body are tightly regulated by the small vessels (vascular and lymphatic capillaries) except during trauma such as flesh wounds. The VESGEN system may support analysis of such retinal and brain vascular changes mediating the fluid shifts from images of experimental animals and clinical diagnostic images of humans.

[3] = chorioallantoic membrane, with higher concentrations

Substance: angiostatin
- vascular morphology on inhibition of angiogenesis ([1]; avian chorioallantoic membrane): rendered the vascular tree highly abnormal and irregular

Substance: basic fibroblast growth factor [bFGF]
- growth of small vessels ([1]; avian chorioallantoic membrane): stimulated specifically the robust growth of many small vessels
- vessel number, density or diameter for larger pre-existing vessels [2]: did not affect
- growth of new small vessels of vessel generation G5 and greater [2]: stimulation of the growth of new small vessels of vessel generation G5 and greater

Substance: transforming growth factor beta-1 [transforming growth factor (TGF) β-1]
- vascular morphology on inhibition of angiogenesis ([1]; avian chorioallantoic membrane): retained a normal vascular morphology
- vessel number, density or diameter for larger pre-existing vessels [2]: did not affect
- growth of new small vessels of vessel generation G5 and greater [2]: inhibition of the growth of new small vessels of vessel generation G5 and greater

Substance: vascular endothelial growth factor-165 [VEGF]
- diameter of larger vessels ([1]; avian chorioallantoic membrane, at high concentrations): significantly dilated
- growth of new small vessels ([1]; avian chorioallantoic membrane, at low concentrations): stimulated the growth of new small vessels
- vessel density ([1]; chorioallantoic membrane, at low concentrations): increased
- diameters of larger arteries [1, 3]: increasing diameters of larger arteries
- vessel density [1, 3]: progressively decreasing vessel density
- vessel leakage, vessel swelling and vessel tortuosity ([2]; blood vessel morphology): induction of vessel leakage, vessel swelling and vessel tortuosity
- growth and swelling of the associated lymphatic vascular system ([2]; lymphatic vascular system): stimulates the growth and swelling of the associated lymphatic vascular system
- growth of new small vessels of vessel generation G5 and greater [2]: stimulation of the growth of new, small blood vessels
